# System: T-47D spheroids with HUVEC/MSC, viability
# Assay: Anticancer human tumor T-47D cell line growth inhibition [PI3K];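 also: spheroids exposed to agents for seven days before reading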;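 as to viability, T/C: percent of DMSO vehicle control luminescence so 100% = untreated growth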
# Conditions: for IC50: curve of first compound; for viability, T/C: stronger effect = lower value
# From the text: Combinatorial screen of targeted agents with the PI3K inhibitors inavolisib, alpelisib, duvelisib, and copanlisib in multi-cell type tumor spheroids
# A high-throughput screen of multi-cell type tumor spheroids was designed to identify active combinations of targeted small molecules and PI3K pathway inhibitors. Complex spheroids include a stromal component modeled by human endothelial cells (HUVEC) and fibroblasts modeled by human mesenchymal stem cells (MSCs). The concentration ranges selected for each drug and investigational agent were based upon clinically achievable concentrations if the clinical Cmax of the agent was known.
# Compounds. The drugs and investigational agents: inavolisib (NSC800729), alpelisib (NSC765974), duvelisib (NSC772469), copanlisib (NSC816437), ipatasertib (NSC767898), afuresertib (NSC778305), talazoparib (NSC767125), sapanisertib (NSC764658), selumetinib (NSC741078), tovorafenib (DAY101, NSC766906), vemurafenib (NSC761431), ravoxertinib (NSC781343), sotorasib (NSC818433), MRTX1133 (NSC 836407), abemaciclib (NSC 768073), palbociclib (NSC758247), venetoclax (NSC 766270), SY5609 (NSC837396), enzalutamide (NSC755605), and darolutamide (NSC825331), were obtained from the National Cancer Institute (NCI) Developmental Therapeutics Program Chemical Repository. The FDA-approved anticancer drug set is available from the NCI Developmental Therapeutics Program. […] The stock solutions were prepared in dimethyl sulfoxide (DMSO, Sigma-Aldrich, St. Louis, MO, cat. D2650) at 800-fold the tested concentration and stored at -70 degrees C prior to their use. All drugs and investigational agents were tested over a range starting from a high concentration at or near the clinical Cmax and decreasing in half-log increments. If the clinical Cmax for an agent had not been determined, the highest concentration tested was 10 microM.
# Cell Culture. All cells were maintained in an incubator at 37 degrees C and 5% CO2 with 95% humidity. The PDC lines were cultured according to standard operating procedures established by the NCI PDMR (https://pdmr.cancer.gov/sops/default.htm). All PDCs were thawed and cultured in Matrigel-coated flasks prepared with a working solution of 1X Ham's F-12 nutrient mix, without supplementation (Invitrogen, Waltham, MA, cat. 11765054), 100 U/mL penicillin-streptomycin (Invitrogen, cat. 15140122), and 2.5% Matrigel (Corning Inc., Corning, NY, cat. 354248) for the first three passages. The 354836-022-R-J1-PDC, 475296-252-R-J1-PDC, and 997726-040-R-J2-PDC lines were cultured in 6A media, which includes advanced DMEM/F-12 (Thermo Fisher Scientific, cat. 12634028), 10 mM HEPES (Thermo Fisher Scientific, cat. 15630080), 1X GlutaMAX supplement (Thermo Fisher Scientific, cat. 35050061), 0.1 mg/mL primocin (InvivoGen, San Diego, CA, cat. ant-pm-2), 10% defined fetal bovine serum, heat inactivated (HyClone Laboratories Inc., Logan, UT, cat. SH30070.03HI), 50% L-WRN conditioned media (ATCC, cat. CRL-3276), 1.25 mM N-Acetyl-L-cysteine (Sigma-Aldrich, cat. A9165), 10 mM nicotinamide (Sigma-Aldrich, cat. N0636), 1X B-27 supplement (Thermo Fisher Scientific, cat. 17504044), 1X N-2 supplement (Thermo Fisher Scientific, cat. 17502048), and 10 microM Y-27632 dihydrochloride (Tocris Bioscience, Bristol, United Kingdom, cat. 1254). The 624824-186-R-J2-PDC line was cultured in 6C/Colon 1B media, which includes all 6A media components plus 50 ng/mL human EGF recombinant protein (Thermo Fisher Scientific, cat. PHG0311). […]
# [1] = second compound 0.0316 µM, first compound 0.0316 µM
# [2] = second compound 0.0316 µM, first compound 0.1 µM
# [3] = second compound 0.0316 µM, first compound 0.316 µM
# [4] = second compound 0.0316 µM, first compound 1 µM
# [5] = second compound 0.0316 µM, first compound 3.16 µM
# [6] = second compound 0.0316 µM, first compound 10 µM
# [7] = second compound 0.1 µM, first compound 0.0316 µM
# [8] = second compound 0.1 µM, first compound 0.1 µM
# [9] = second compound 0.1 µM, first compound 0.316 µM
# [10] = second compound 0.1 µM, first compound 1 µM
# [11] = second compound 0.1 µM, first compound 3.16 µM
# [12] = second compound 0.1 µM, first compound 10 µM
# [13] = second compound 0.316 µM, first compound 0.0316 µM
# [14] = second compound 0.316 µM, first compound 0.1 µM
# [15] = second compound 0.316 µM, first compound 0.316 µM
# [16] = second compound 0.316 µM, first compound 1 µM
# [17] = second compound 0.316 µM, first compound 3.16 µM
# [18] = second compound 0.316 µM, first compound 10 µM
# [19] = second compound 1 µM, first compound 0.0316 µM
# [20] = second compound 1 µM, first compound 0.1 µM
# [21] = second compound 1 µM, first compound 0.316 µM
# [22] = second compound 1 µM, first compound 1 µM
# [23] = second compound 1 µM, first compound 3.16 µM
# [24] = second compound 1 µM, first compound 10 µM
# [25] = second compound 3.16 µM, first compound 0.0316 µM
# [26] = second compound 3.16 µM, first compound 0.1 µM
# [27] = second compound 3.16 µM, first compound 0.316 µM
# [28] = second compound 3.16 µM, first compound 1 µM
# [29] = second compound 3.16 µM, first compound 3.16 µM
# [30] = second compound 3.16 µM, first compound 10 µM
# [31] = second compound 10 µM, first compound 0.0316 µM
# [32] = second compound 10 µM, first compound 0.1 µM
# [33] = second compound 10 µM, first compound 0.316 µM
# [34] = second compound 10 µM, first compound 1 µM
# [35] = second compound 10 µM, first compound 3.16 µM
# [36] = second compound 10 µM, first compound 10 µM
compound,measurement,setting,value
CC(Cn1ccc(-c2ccc(C#N)c(Cl)c2)n1)NC(=O)c1cc(C(C)O)[nH]n1 (stereo unspecified) + CC(Nc1ncnc2nc[nH]c12)c1cc2cccc(Cl)c2c(=O)n1-c1ccccc1,IC50,second compound 0.0316 µM,> 10 µM
same,IC50,second compound 0.1 µM,> 10 µM
same,IC50,second compound 0.316 µM,> 10 µM
same,IC50,second compound 1 µM,> 10 µM
same,IC50,second compound 3.16 µM,> 10 µM
same,IC50,second compound 10 µM,> 10 µM
same,"viability, T/C",[1],83.6%
same,"viability, T/C",[2],76.1%
same,"viability, T/C",[3],87.8%
same,"viability, T/C",[4],90%
same,"viability, T/C",[5],86.2%
same,"viability, T/C",[6],51%
same,"viability, T/C",[7],93.1%
same,"viability, T/C",[8],80%
same,"viability, T/C",[9],75.7%
same,"viability, T/C",[10],82.3%
same,"viability, T/C",[11],85.6%
same,"viability, T/C",[12],54.9%
same,"viability, T/C",[13],90.7%
same,"viability, T/C",[14],107%
same,"viability, T/C",[15],86.4%
same,"viability, T/C",[16],87.5%
same,"viability, T/C",[17],74.9%
same,"viability, T/C",[18],62.1%
same,"viability, T/C",[19],80.2%
same,"viability, T/C",[20],77.4%
same,"viability, T/C",[21],92.9%
same,"viability, T/C",[22],80.9%
same,"viability, T/C",[23],74.4%
same,"viability, T/C",[24],64%
same,"viability, T/C",[25],84.5%
same,"viability, T/C",[26],86.5%
same,"viability, T/C",[27],87.7%
same,"viability, T/C",[28],85.7%
same,"viability, T/C",[29],81.4%
same,"viability, T/C",[30],52.4%
same,"viability, T/C",[31],80.7%
same,"viability, T/C",[32],84.3%
same,"viability, T/C",[33],75.2%
same,"viability, T/C",[34],80.1%
same,"viability, T/C",[35],72.2%
same,"viability, T/C",[36],56.4%
Cn1nccc1Nc1nccc(-c2ccn(C(CO)c3ccc(Cl)c(F)c3)c(=O)c2)n1 (stereo unspecified) + Cc1nc(NC(=O)N2CCCC2C(N)=O)sc1-c1ccnc(C(C)(C)C(F)(F)F)c1,IC50,second compound 0.0316 µM,> 10 µM
same,IC50,second compound 0.1 µM,> 10 µM
same,IC50,second compound 0.316 µM,> 10 µM
same,IC50,second compound 1 µM,> 10 µM
same,IC50,second compound 3.16 µM,> 10 µM
same,IC50,second compound 10 µM,< 0.0316 µM
same,"viability, T/C",[1],99.1%
same,"viability, T/C",[2],81.6%
same,"viability, T/C",[3],92.6%
same,"viability, T/C",[4],102%
same,"viability, T/C",[5],103%
same,"viability, T/C",[6],96.3%
same,"viability, T/C",[7],111%
same,"viability, T/C",[8],95.2%
same,"viability, T/C",[9],98.8%
same,"viability, T/C",[10],89.4%
same,"viability, T/C",[11],117%
same,"viability, T/C",[12],85.7%
same,"viability, T/C",[13],86.8%
same,"viability, T/C",[14],93.3%
same,"viability, T/C",[15],97.6%
same,"viability, T/C",[16],101%
same,"viability, T/C",[17],104%
same,"viability, T/C",[18],92.4%
same,"viability, T/C",[19],85.4%
same,"viability, T/C",[20],92.7%
same,"viability, T/C",[21],86.6%
same,"viability, T/C",[22],88%
same,"viability, T/C",[23],110%
same,"viability, T/C",[24],82%
same,"viability, T/C",[25],65.9%
same,"viability, T/C",[26],70.8%
same,"viability, T/C",[27],73.5%
same,"viability, T/C",[28],83.3%
same,"viability, T/C",[29],76.9%
same,"viability, T/C",[30],70.8%
same,"viability, T/C",[31],39.5%
same,"viability, T/C",[32],39.9%
same,"viability, T/C",[33],41.7%
same,"viability, T/C",[34],42.9%
same,"viability, T/C",[35],46.4%
same,"viability, T/C",[36],48.7%
CCN1CCN(Cc2ccc(Nc3ncc(F)c(-c4cc(F)c5nc(C)n(C(C)C)c5c4)n3)nc2)CC1 + CC(Nc1ccc2c(c1)OCCn1cc(N3C(=O)OCC3C(F)F)nc1-2)C(N)=O,IC50,second compound 0.00316 µM,> 1 µM
same,IC50,second compound 0.01 µM,> 1 µM
same,IC50,second compound 0.0316 µM,> 1 µM
same,IC50,second compound 0.1 µM,> 1 µM
same,IC50,second compound 0.316 µM,0.0173 µM
same,IC50,second compound 1 µM,< 0.00316 µM
same,"viability, T/C","second compound 0.00316 µM, first compound 0.00316 µM",107%
same,"viability, T/C","second compound 0.00316 µM, first compound 0.01 µM",101%
same,"viability, T/C","second compound 0.00316 µM, first compound 0.0316 µM",91%
same,"viability, T/C","second compound 0.00316 µM, first compound 0.1 µM",95.5%
same,"viability, T/C","second compound 0.00316 µM, first compound 0.316 µM",91.6%
same,"viability, T/C","second compound 0.00316 µM, first compound 1 µM",91.2%
same,"viability, T/C","second compound 0.01 µM, first compound 0.00316 µM",93%
same,"viability, T/C","second compound 0.01 µM, first compound 0.01 µM",101%
same,"viability, T/C","second compound 0.01 µM, first compound 0.0316 µM",94.4%
same,"viability, T/C","second compound 0.01 µM, first compound 0.1 µM",86.2%
same,"viability, T/C","second compound 0.01 µM, first compound 0.316 µM",76.5%
same,"viability, T/C","second compound 0.01 µM, first compound 1 µM",82.5%
same,"viability, T/C","second compound 0.0316 µM, first compound 0.00316 µM",88.2%
same,"viability, T/C","second compound 0.0316 µM, first compound 0.01 µM",98%
same,"viability, T/C",[1],81.8%
same,"viability, T/C",[2],90%
same,"viability, T/C",[3],72.6%
same,"viability, T/C",[4],91%
same,"viability, T/C","second compound 0.1 µM, first compound 0.00316 µM",83.3%
same,"viability, T/C","second compound 0.1 µM, first compound 0.01 µM",90.6%
same,"viability, T/C",[7],71.5%
same,"viability, T/C",[8],58.9%
same,"viability, T/C",[9],56.5%
same,"viability, T/C",[10],73.8%
same,"viability, T/C","second compound 0.316 µM, first compound 0.00316 µM",58.2%
same,"viability, T/C","second compound 0.316 µM, first compound 0.01 µM",49.9%
same,"viability, T/C",[13],51.2%
same,"viability, T/C",[14],48.8%
same,"viability, T/C",[15],47%
same,"viability, T/C",[16],49.1%
same,"viability, T/C","second compound 1 µM, first compound 0.00316 µM",49.7%
same,"viability, T/C","second compound 1 µM, first compound 0.01 µM",36.8%
same,"viability, T/C",[19],35.7%
same,"viability, T/C",[20],32.5%
same,"viability, T/C",[21],37.2%
same,"viability, T/C",[22],44.8%

# Source: PubChem BioAssay AID1963959 (Molecular Pharmacology Branch, DTP, NCI, 2024)
